Reference: patent publication US6355799B1, “Substituted benzene compounds, process for their preparation, and herbicidal and defoliant compositions containing them” (ISK Americas Incorporated, priority 1997, dated 2002)

Legend:
Type in all cases: in vivo
[1] = tested on: green foxtail (Setaria viridis, SETVI); assay: Pre-emerge test, greenhouse herbicide activity screening; conditions: pre-emerge, 14 days after application, scale 0-100
Outline: (§1)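 Visual ratings on a 0-100 scale (0 no damage, 100 all plants dead) were taken at 14 days after treatment. Rates of 15-1000 g ai/ha in acetone, 187 l/ha, were sprayed onto soil one day after planting (pre-emerge) or onto 2-3 leaf plants with 0.25% v/v surfactant (post-emerge).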

[2] = tested on: ivyleaf morningglory (Ipomoea hederacea, IPOHE); assay: as above; conditions: pre-emerge, 14 days after application, scale 0-100
Outline: as §1

[3] = tested on: barnyardgrass (Echinochloa crus-galli, ECHCG); assay: as above; conditions: pre-emerge, 14 days after application, scale 0-100
Outline: as §1

[4] = tested on: sicklepod (Cassia obtusifolia, CASOB); assay: as above; conditions: pre-emerge, 14 days after application, scale 0-100
Outline: as §1

[5] = tested on: johnsongrass (Sorghum halepense, SORHA); assay: as above; conditions: pre-emerge, 14 days after application, scale 0-100
Outline: as §1

[6] = tested on: velvetleaf (Abutilon theophrasti, ABUTH); assay: as above; conditions: pre-emerge, 14 days after application, scale 0-100
Outline: as §1

[7] = tested on: common ragweed (Ambrosia artemisizfolia L., AMBEL); assay: as above; conditions: pre-emerge, 14 days after application, scale 0-100
Outline: as §1

[8] = tested on: large crabgrass (Digitaria sanguinalis, DIGSA); assay: as above; conditions: pre-emerge, 14 days after application, scale 0-100
Outline: as §1

[9] = tested on: lambsquarters (Chenopodium album, CHEAL); assay: as above; conditions: pre-emerge, 14 days after application, scale 0-100
Outline: as §1

[10] = tested on: upland rice (Oryza sp., var. Tebonnet, RICE); assay: Pre-emerge test, crop safety; conditions: pre-emerge, 14 days after application, scale 0-100
Outline: (§2)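 Sandy loam pots; pre-emerge: sown 1 d pre-spray, surface-watered after, then bottom-watered. Post-emerge: sown 8–21 d before, 2–3 leaf stage, + 0.25% v/v NIS, bottom-watered. Acetone, 187 l/ha track spray, 15–1000 g ai/ha. 0–100 injury score, day 14.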

[11] = tested on: field corn (Zea mays L., var. Dekalb 535, CORN); assay: Pre-emerge test, crop safety; conditions: pre-emerge, 14 days after application, scale 0-100
Outline: as §2

[12] = tested on: green foxtail (Setaria viridis, SETVI); assay: Post-emerge test, greenhouse herbicide activity screening; conditions: post-emerge, 14 days after application, rating scale 0-100
Outline: (§3)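 Fourteen days after spraying, crop and weed injury was graded visually from 0, no effect, to 100, every plant dead. Test substances were dissolved in acetone and applied at 15–1000 g ai/ha with a flat-fan nozzle. Application was either pre-emergence, one day after sowing, or post-emergence at the 2–3 leaf stage.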

[13] = tested on: redroot pigweed (Amaranthus retroflexus, AMARE); assay: as above; conditions: post-emerge, 14 days after application, rating scale 0-100
Outline: as §3

[14] = tested on: ivyleaf morningglory (Ipomoea hederacea, IPOHE); assay: as above; conditions: post-emerge, 14 days after application, rating scale 0-100
Outline: as §3

[15] = tested on: barnyardgrass (Echinochloa crus-galli, ECHCG); assay: as above; conditions: post-emerge, 14 days after application, rating scale 0-100
Outline: as §3

[16] = tested on: sicklepod (Cassia obtusifolia, CASOB); assay: as above; conditions: post-emerge, 14 days after application, rating scale 0-100
Outline: as §3

[17] = tested on: johnsongrass (Sorghum halepense, SORHA); assay: as above; conditions: post-emerge, 14 days after application, rating scale 0-100
Outline: as §3

[18] = tested on: velvetleaf (Abutilon theophrasti, ABUTH); assay: as above; conditions: post-emerge, 14 days after application, rating scale 0-100
Outline: as §3

[19] = tested on: large crabgrass (Digitaria sanguinalis, DIGSA); assay: as above; conditions: post-emerge, 14 days after application, rating scale 0-100
Outline: as §3

[20] = tested on: lambsquarters (Chenopodium album, CHEAL); assay: as above; conditions: post-emerge, 14 days after application, rating scale 0-100
Outline: as §3

[21] = tested on: redroot pigweed (Amaranthus retroflexus, AMARE); assay: Pre-emerge test, greenhouse herbicide activity screening; conditions: pre-emerge, 14 days after application, scale 0-100
Outline: as §2

[22] = tested on: upland rice (Oryza sp., var. Tebonnet, RICE); assay: Post-emerge test, crop safety; conditions: post-emerge, 14 days after application, rating scale 0-100
Outline: as §1

[23] = tested on: field corn (Zea mays L., var. Dekalb 535, CORN); assay: Post-emerge test, crop safety; conditions: post-emerge, 14 days after application, rating scale 0-100
Outline: as §1

Cn1c(C(F)(F)F)cc(=O)n(-c2ccc(C(F)(F)F)cc2NC(=O)c2ccc3ccccc3c2)c1=O [2-149]
0: phytotoxicity rating CASOB ([4]; 63 g ai/ha) | phytotoxicity rating AMBEL ([7]; 63 g ai/ha) | phytotoxicity rating RICE (crop damage) ([10]; 63 g ai/ha) | phytotoxicity rating CORN (crop damage) ([11]; 63 g ai/ha) | SORHA phytotoxicity rating ([17]; 63 g ai/ha) | SORHA phytotoxicity rating ([17]; 250 g ai/ha) | DIGSA phytotoxicity rating ([19]; 63 g ai/ha) | RICE phytotoxicity rating (crop damage) ([22]; 63 g ai/ha) | CORN phytotoxicity rating (crop damage) ([23]; 63 g ai/ha)
10: SETVI phytotoxicity rating ([12]; 63 g ai/ha) | RICE phytotoxicity rating (crop damage) ([22]; 250 g ai/ha)
50: phytotoxicity rating SETVI ([1]; 63 g ai/ha) | phytotoxicity rating ECHCG ([3]; 63 g ai/ha) | phytotoxicity rating CASOB ([4]; 250 g ai/ha) | phytotoxicity rating SORHA ([5]; 250 g ai/ha) | phytotoxicity rating RICE (crop damage) ([10]; 250 g ai/ha) | ECHCG phytotoxicity rating ([15]; 250 g ai/ha)
100: phytotoxicity rating ECHCG ([3]; 250 g ai/ha) | phytotoxicity rating ABUTH ([6]; 250 g ai/ha) | phytotoxicity rating AMBEL ([7]; 250 g ai/ha) | phytotoxicity rating DIGSA ([8]; 250 g ai/ha) | phytotoxicity rating CHEAL ([9]; 63 g ai/ha) | phytotoxicity rating CHEAL ([9]; 250 g ai/ha) | ABUTH phytotoxicity rating ([18]; 63 g ai/ha) | ABUTH phytotoxicity rating ([18]; 250 g ai/ha) | phytotoxicity rating AMARE ([21]; 63 g ai/ha) | phytotoxicity rating AMARE ([21]; 250 g ai/ha)
90: phytotoxicity rating SETVI ([1]; 250 g ai/ha) | phytotoxicity rating DIGSA ([8]; 63 g ai/ha) | CHEAL phytotoxicity rating ([20]; 63 g ai/ha)
80: AMARE phytotoxicity rating ([13]; 63 g ai/ha) | AMARE phytotoxicity rating ([13]; 250 g ai/ha)
95: IPOHE phytotoxicity rating ([14]; 250 g ai/ha) | CASOB phytotoxicity rating ([16]; 63 g ai/ha) | CASOB phytotoxicity rating ([16]; 250 g ai/ha) | CHEAL phytotoxicity rating ([20]; 250 g ai/ha)
99: phytotoxicity rating ABUTH ([6]; 63 g ai/ha)
15: CORN phytotoxicity rating (crop damage) ([23]; 250 g ai/ha)
30: phytotoxicity rating IPOHE ([2]; 63 g ai/ha) | phytotoxicity rating SORHA ([5]; 63 g ai/ha)
70: phytotoxicity rating IPOHE ([2]; 250 g ai/ha) | IPOHE phytotoxicity rating ([14]; 63 g ai/ha)
20: phytotoxicity rating CORN (crop damage) ([11]; 250 g ai/ha) | SETVI phytotoxicity rating ([12]; 250 g ai/ha) | ECHCG phytotoxicity rating ([15]; 63 g ai/ha) | DIGSA phytotoxicity rating ([19]; 250 g ai/ha)

COc1c(Cl)cc(F)c(-n2c(=O)cc(C(F)(F)F)n(C)c2=O)c1NC(=O)c1ccc2c(C#N)cccc2c1 [2-163]
30: phytotoxicity rating SORHA ([5]; 250 g ai/ha) | phytotoxicity rating RICE (crop damage) ([10]; 250 g ai/ha) | DIGSA phytotoxicity rating ([19]; 63 g ai/ha)
50: SETVI phytotoxicity rating ([12]; 63 g ai/ha)
70: ECHCG phytotoxicity rating ([15]; 250 g ai/ha)
20: RICE phytotoxicity rating (crop damage) ([22]; 63 g ai/ha)
55: ECHCG phytotoxicity rating ([15]; 63 g ai/ha) | RICE phytotoxicity rating (crop damage) ([22]; 250 g ai/ha)
45: DIGSA phytotoxicity rating ([19]; 250 g ai/ha)
60: phytotoxicity rating SETVI ([1]; 63 g ai/ha) | phytotoxicity rating CASOB ([4]; 250 g ai/ha) | SETVI phytotoxicity rating ([12]; 250 g ai/ha)
75: phytotoxicity rating ECHCG ([3]; 250 g ai/ha)
10: phytotoxicity rating CASOB ([4]; 63 g ai/ha) | SORHA phytotoxicity rating ([17]; 250 g ai/ha)
99: ABUTH phytotoxicity rating ([18]; 63 g ai/ha)
95: phytotoxicity rating SETVI ([1]; 250 g ai/ha) | phytotoxicity rating IPOHE ([2]; 250 g ai/ha) | phytotoxicity rating ABUTH ([6]; 63 g ai/ha) | phytotoxicity rating AMBEL ([7]; 250 g ai/ha) | IPOHE phytotoxicity rating ([14]; 250 g ai/ha)
40: phytotoxicity rating IPOHE ([2]; 63 g ai/ha) | CORN phytotoxicity rating (crop damage) ([23]; 250 g ai/ha)
100: phytotoxicity rating ABUTH ([6]; 250 g ai/ha) | phytotoxicity rating DIGSA ([8]; 250 g ai/ha) | phytotoxicity rating CHEAL ([9]; 63 g ai/ha) | phytotoxicity rating CHEAL ([9]; 250 g ai/ha) | AMARE phytotoxicity rating ([13]; 63 g ai/ha) | AMARE phytotoxicity rating ([13]; 250 g ai/ha) | ABUTH phytotoxicity rating ([18]; 250 g ai/ha) | CHEAL phytotoxicity rating ([20]; 63 g ai/ha) | CHEAL phytotoxicity rating ([20]; 250 g ai/ha) | phytotoxicity rating AMARE ([21]; 63 g ai/ha) | phytotoxicity rating AMARE ([21]; 250 g ai/ha)
35: phytotoxicity rating DIGSA ([8]; 63 g ai/ha) | CORN phytotoxicity rating (crop damage) ([23]; 63 g ai/ha)
0: phytotoxicity rating ECHCG ([3]; 63 g ai/ha) | phytotoxicity rating SORHA ([5]; 63 g ai/ha) | phytotoxicity rating RICE (crop damage) ([10]; 63 g ai/ha) | phytotoxicity rating CORN (crop damage) ([11]; 63 g ai/ha) | phytotoxicity rating CORN (crop damage) ([11]; 250 g ai/ha) | SORHA phytotoxicity rating ([17]; 63 g ai/ha)
65: phytotoxicity rating AMBEL ([7]; 63 g ai/ha)
98: IPOHE phytotoxicity rating ([14]; 63 g ai/ha)
90: CASOB phytotoxicity rating ([16]; 63 g ai/ha) | CASOB phytotoxicity rating ([16]; 250 g ai/ha)
